Experimental data taken from ChEMBL document CHEMBL1145541 (J Med Chem, 2008).

Legend:
[1] = target: T1, Type-1 angiotensin II receptor A (Rattus norvegicus, UniProt P25095); assay: Displacement of [125I]Sar1,Ile8-Ang2 from AT1 receptor in Wistar rat hepatic membrane; type: cell membranes, Liver
T1 sequence (P25095 whole entry): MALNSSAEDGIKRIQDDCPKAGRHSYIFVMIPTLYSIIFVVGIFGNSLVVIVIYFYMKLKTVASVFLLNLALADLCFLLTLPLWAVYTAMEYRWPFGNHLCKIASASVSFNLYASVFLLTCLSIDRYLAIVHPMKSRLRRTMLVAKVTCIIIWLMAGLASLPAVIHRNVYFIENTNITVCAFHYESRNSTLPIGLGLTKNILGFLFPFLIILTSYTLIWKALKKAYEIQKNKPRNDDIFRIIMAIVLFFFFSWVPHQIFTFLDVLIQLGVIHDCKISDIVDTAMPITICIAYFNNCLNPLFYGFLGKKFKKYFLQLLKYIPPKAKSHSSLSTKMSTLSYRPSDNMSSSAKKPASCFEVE

in vitro = details: human, Caco-2
Description: Permeability from apical to basolateral side of human Caco-2 cell membrane

[2] = AUC in Sprague-Dawley rat at 15 mg/kg, po; type: ADME, organism-based; design: dose 15 mg/kg, route oral; details: plasma
[3] = Cmax in Sprague-Dawley rat at 5 mg/kg, iv; type: ADME, organism-based; design: dose 5 mg/kg, route intravenous; details: in vivo
[4] = Oral bioavailability in Sprague-Dawley rat at 15 mg/kg; type: ADME, organism-based; details: in vivo
[5] = AUC in Sprague-Dawley rat at 5 mg/kg, iv; type: ADME, organism-based; design: dose 5 mg/kg, route intravenous; details: plasma
[6] = Half life in Sprague-Dawley rat at 15 mg/kg, po; type: ADME, organism-based; design: dose 15 mg/kg, route oral; details: in vivo
[7] = target: T2, Type-1 angiotensin II receptor (Oryctolagus cuniculus, UniProt P34976); assay: Antagonist activity at AT1 receptor in Ang II-contracted rabbit aortic strips after 60 mins; details: read-out: pA2 (converted)
T2 sequence (P34976 whole entry): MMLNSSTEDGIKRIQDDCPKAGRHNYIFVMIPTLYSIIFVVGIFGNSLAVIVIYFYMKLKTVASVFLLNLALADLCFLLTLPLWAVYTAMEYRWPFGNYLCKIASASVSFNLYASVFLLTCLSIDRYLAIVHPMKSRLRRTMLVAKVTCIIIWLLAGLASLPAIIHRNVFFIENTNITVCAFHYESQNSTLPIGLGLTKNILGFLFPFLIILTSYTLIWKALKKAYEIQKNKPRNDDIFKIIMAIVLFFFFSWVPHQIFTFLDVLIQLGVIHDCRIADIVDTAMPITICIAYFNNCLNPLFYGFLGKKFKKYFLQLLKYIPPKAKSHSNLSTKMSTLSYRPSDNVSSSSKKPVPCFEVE

[8] = Tmax in Sprague-Dawley rat at 15 mg/kg, po; type: ADME, organism-based; design: dose 15 mg/kg, route oral; details: in vivo
[9] = Cmax in Sprague-Dawley rat at 15 mg/kg, po; type: ADME, organism-based; design: dose 15 mg/kg, route oral; details: in vivo
[10] = Half life in Sprague-Dawley rat at 5 mg/kg, iv; type: ADME, organism-based; design: dose 5 mg/kg, route intravenous; details: in vivo

Compound	IC50 [1] [nM]	other results
CCCCN1C(=O)C2(CCCC2)CC(=O)N1Cc1ccc(-c2ccccc2-c2nnn[nH]2)cc1	–	Ki [1]: 80 nM
CCCCn1nc(OCc2ccc(-c3ccccc3-c3nn[nH]n3)cc2)c2cccnc2c1=O	114	–
CCCC1c2ncccc2C(=O)N1Cc1ccc(-c2ccccc2-c2nn[nH]n2)cc1 (centres undefined)	154	–
CC(C)CCn1c(=O)c2cccnc2n1Cc1ccc(-c2ccccc2-c2nnn[nH]2)cc1	124	–
CCCCn1c(=O)c2cc(Cl)cnc2n1Cc1ccc(-c2ccccc2-c2nnn[nH]2)cc1	76	Papp A→B (in vitro): 10.8 ×10⁻⁶ cm/s
O=C1c2cccnc2CN1Cc1ccc(-c2ccccc2-c2nn[nH]n2)cc1	> 10000	–
CCCCn1c2nc(C)ccc2c(=O)n1Cc1ccc(-c2ccccc2-c2nn[nH]n2)cc1	90	Papp A→B (in vitro): 8.7 ×10⁻⁶ cm/s
CCCn1c(=O)c2ccc(C)nc2n1Cc1ccc(-c2ccccc2-c2nnn[nH]2)cc1	291	–
CCn1c(=O)c2ccc(C)nc2n1Cc1ccc(-c2ccccc2-c2nnn[nH]2)cc1	1870	–
CCCCn1c(=O)c2ccc(NC)nc2n1Cc1ccc(-c2ccccc2-c2nn[nH]n2)cc1	124	–
CCCCN1C(=O)C2(CCCC2)C(=O)N1Cc1ccc(-c2ccccc2-c2nn[nH]n2)cc1	–	Ki [1]: 25 nM
CCCCN1C(=O)CC2(CCCC2)C(=O)N1Cc1ccc(-c2ccccc2-c2nn[nH]n2)cc1	–	Ki [1]: 14 nM
CCCN1C(=O)c2cccnc2C1Cc1ccc(-c2ccccc2-c2nn[nH]n2)cc1 (centres undefined)	> 3000	–
CCCCn1c(=O)c2ccc(Cl)nc2n1Cc1ccc(-c2ccccc2-c2nnn[nH]2)cc1	168	–
CCCn1c(=O)c2cccnc2n1Cc1ccc(-c2ccccc2-c2nnn[nH]2)cc1	108	–
CCCCn1c(=O)c2ccc(C)nc2n1Cc1ccc(-c2ccccc2-c2nnn[nH]2)cc1	81	–
CCCCn1c(=O)c2ccccc2n1Cc1ccc(-c2ccccc2-c2nnn[nH]2)cc1	598	–
CCCCn1c2nc(Cl)ccc2c(=O)n1Cc1ccc(-c2ccccc2-c2nn[nH]n2)cc1	461	–
CCCCn1c(=O)c2ccc(N3CCOCC3)nc2n1Cc1ccc(-c2ccccc2-c2nnn[nH]2)cc1	600	–

Now from value to compound, other results behind:

IC50 [1] [nM]	Compound	other results
> 3000	O=c1c2cccnc2n(Cc2ccc(-c3ccccc3-c3nn[nH]n3)cc2)n1Cc1ccccc1	–
53	CCCCCn1c(=O)c2cccnc2n1Cc1ccc(-c2ccccc2-c2nnn[nH]2)cc1	–
146	CCCn1nc(OCc2ccc(-c3ccccc3-c3nnn[nH]3)cc2)c2cccnc21	–
18	CCCCn1c(=O)c2cccnc2n1Cc1ccc(-c2ccccc2-c2nn[nH]n2)cc1	Papp A→B (in vitro): 1.78 ×10⁻⁶ cm/s; AUC [2]: 3380 ng·h/mL; Cmax [3]: 6320 ng/mL; bioavailability [4]: 80%; AUC [5]: 1410 ng·h/mL; half-life [6]: 54 min; Kb [7]: 10.5 nM; Tmax [8]: 30 min; Cmax [9]: 4100 ng/mL; half-life [10]: 60 min
2300	CC(C)Cn1c(=O)c2cccnc2n1Cc1ccc(-c2ccccc2-c2nn[nH]n2)cc1	–
39	CCCCn1c2ncccc2c(=O)n1Cc1ccc(-c2ccccc2-c2nnn[nH]2)cc1	Papp A→B (in vitro): 3.6 ×10⁻⁶ cm/s; Kb [7]: 14.8 nM
> 10000	CCC1c2ncccc2C(=O)N1Cc1ccc(-c2ccccc2-c2nn[nH]n2)cc1 (centres undefined)	–
427	CCCCn1c(=O)c2cc(F)c(Cl)nc2n1Cc1ccc(-c2ccccc2-c2nnn[nH]2)cc1	–
0.8	CCCc1nc2c(C)cc(C)nc2n1Cc1ccc(-c2ccccc2-c2nn[nH]n2)cc1	–
70	CCCCn1c(=O)c2cc(F)cnc2n1Cc1ccc(-c2ccccc2-c2nnn[nH]2)cc1	–
258	CCCCn1c(=O)c2ccc(OC)nc2n1Cc1ccc(-c2ccccc2-c2nnn[nH]2)cc1	–
254	CCCCn1nc(OCc2ccc(-c3ccccc3-c3nnn[nH]3)cc2)c2cccnc21	–
95	CCCCC1c2ncccc2C(=O)N1Cc1ccc(-c2ccccc2-c2nn[nH]n2)cc1 (centres undefined)	Papp A→B (in vitro): 5.6 ×10⁻⁶ cm/s
6.9	CCc1nc2c(C)cc(C)nc2n1Cc1ccc(-c2c(-c3nnn[nH]3)cnc3ccccc23)cc1	–
0.4	CCc1nc2c(C)cc(C)nc2n1Cc1ccc(-c2ccccc2-c2nnn[nH]2)cc1 [L-158809]	–
